These results are taken from US20190374618A1, “FIBRONECTIN OR ILK INHIBITORS FOR USE IN THE TREATMENT OF LEUKEMIA” (Chemotherapeutisches Forschungsinstitut Georg-Speyer-Haus, priority 2016, published 2019).

The conditions of series [1]: patients, cardiovascular toxicity reference; cited from earlier work.
In series [2] the test system is BCR-ABL1^T315I+ CML. As to the kind of experiment: intrafemoral co-injection of fibronectin with leukemia-initiating cells, retroviral transduction/transplantation model of CML. Type of series: in vivo, mouse (Balb/c). The text has this: FIG. 7: White blood cell counts per μl in peripheral blood (a) and survival (b) of mice intravenously transplanted (no FN) or intrafemorally co-transplanted with BCR-ABL1 (gray colors)- or BCR-ABL1T315I (blue colors)-transduced bone marrow and vehicle or FN.
(§1) The inventors have shown by immunofluorescence (FIG. 5) and immunohistochemistry of bone sections of mice transplanted with empty vector-transduced cells, or mice with BCR-ABL1^WT+ or BCR-ABL1^T315I+ CML-like myeloproliferative neoplasia (FIG. 6), that BCR-ABL1^T315I+ cells deposit less fibronectin in their environment than BCR-ABL1^WT+ cells, which is likely also reflected by their differences in their interaction with the BMM.
(§2) Our retroviral stock was generated and bone marrow transplantation experiments were performed as described earlier (9, 14, 16). In general, we injected between 2.25 and 2.5×10^5 transduced cells into female irradiated (750 cGy) Balb/c recipient mice. The T315I point mutation in BCR-ABL1 was introduced by site-directed mutagenesis in the open reading frame of the MSCV IRES GFP vector.
(§3) Therapeutic application of fibronectin was performed as follows: intravenous application of 200 μg bovine fibronectin (in HBSS) on days 9, 10 and 12 post transplantation; for vehicle control treatments, 200 μl of HBSS (equal volume to fibronectin dose) was administered. […]

Series [3] concerns BCR-ABL1^T315I+ CML. As to the kind of experiment: intravenous fibronectin on days 9, 10 and 12 post transplantation, retroviral transduction/transplantation model of CML. As to conditions: three intravenous injections on days 9, 10 and 12 post transplantation, BCR-ABL1T315I+ CML vs vehicle-treated mice, FIG. 8. It counts as in vivo, mouse (Balb/c).
Source text: FIG. 8: Kaplan-Meier survival curve of mice intravenously transplanted with BCR-ABL1 (gray colours) or BCR-ABL1T315I (blue colours)-transduced bone marrow treated with vehicle or FN on days 9, 10 and 12 after transplantation.
as §1, §2, §3

For series [4], the system named is LSC in CML. To be noted: but not AML; cited from earlier work.

On to `Cc1nc(Nc2ncc(C(=O)Nc3c(C)cccc3Cl)s2)cc(N2CCN(CCO)CC2)n1` [dasatinib], for which, in series [1], the adverse events entry is reported as “frequently associated with severe adverse events”.

Turning to `Cc1cn(-c2cc(NC(=O)c3ccc(C)c(Nc4nccc(-c5cccnc5)n4)c3)cc(C(F)(F)F)c2)cn1` [nilotinib], in series [1], the adverse events result is reported as “frequently associated with severe adverse events”.

For `Cc1ccc(C(=O)Nc2ccc(CN3CCN(C)CC3)c(C(F)(F)F)c2)cc1C#Cc1cnc2cccnn12` [ponatinib], the adverse events result in series [1] was “frequently associated with severe adverse events”.

Take “fibronectin: Murine fibronectin (Abcam ab92784) for intrafemoral injection; lyophilized bovine fibronectin (Thermo Fisher 33010018) for intravenous application”: in series [2] (intrafemoral co-injection of fibronectin with BCR-ABL1WT+ or BCR-ABL1T315I+ leukemia-initiating cells vs vehicle, FIG. 7a), the “tumor burden (white blood cell counts per μl in peripheral blood)” value is on record as “significantly decreased the tumor burden”. Besides, the survival result in series [2] (recipients of BCR-ABL1T315I-transduced bone marrow, intrafemoral co-injection vs vehicle, FIG. 7b) is listed as “prolonged survival”; in series [3], “significant prolongation of survival”.

B1: parathyroid hormone: the most potent regulator of bone turnover (protein, UniProt P01270 32-115, looked up)
Parathyroid hormone: SVSEIQLMHNLGKHLNSMERVEWLRKKLQDVHNFVALGAPLAPRDAGSQRPRKKEDNVLVESHEKSLGEADKADVNVLTKAKSQ
modifications: Parathyroid hormone
Regarding B1, the LSC number entry in series [4] is “reduction of LSC in CML”.
